How the values were obtained:
HMLER cells = experiment: Genome-wide siRNA lethality screen (primary screen), CellTiterGlo viability; format: cell-based, human; conditions: for Fold_HMLER / MAD_HMLER: primary screen, HMLER cells; for MAD_HMLER: MAD score; for MAD HMLER: MAD score of viability in HMLER cells; for Fold HMLER: fold viability in HMLER cells
BPLER cells [1] = experiment: as above; format: cell-based, human; conditions: for Ratio: R, BPLER versus HMLER, primary screen; for MAD BPLER / Fold BPLER: siRNA pool against the gene; for MAD BPLER: MAD score of viability in BPLER cells; for Fold BPLER: fold viability in BPLER cells
BPLER cells [2] = experiment: Secondary (cherry-pick) screen with the 4 individual siRNAs of each pool; conditions: for Cherry_Score: secondary cherry-pick screen, 4 individual siRNAs of each pool
[3] = validation screen with individual siRNAs of each pool
[4] = siRNA pool against the gene, fold viability
[5] = ratio of Fold_BPLER to Fold_HMLER
[6] = ratio of fold viability BPLER/HMLER
[7] = secondary screen with the 4 individual siRNAs of each pool

Molecule | Fold_HMLER (HMLER cells; siRNA pool) | Ratio (BPLER cells [1]) | Cherry Score (BPLER cells [2]; [3]) | MAD_HMLER (HMLER cells; siRNA pool against the gene) | Fold_HMLER (HMLER cells; [4]) | MAD HMLER (HMLER cells; siRNA pool against the gene) | Fold HMLER (HMLER cells; siRNA pool against the gene) | Ratio BPLER/HMLER (BPLER cells [1]; [5]) | Ratio BPLER/HMLER (BPLER cells [1]; [6]) | MAD BPLER (BPLER cells [1]) | Fold BPLER (BPLER cells [1]) | Cherry_Score (BPLER cells [2]) | Cherry Score (BPLER cells [2]; [7])
NM_152374 | 0.97 | 0.72 | 2 | – | – | – | – | – | – | – | – | – | –
NM_080730 | 0.99 | 0.72 | 1 | – | – | – | – | – | – | – | – | – | –
PHF1 | – | – | – | −0.72 | 0.86 | −0.72 | 0.86 | 0.71 | 0.71 | −3.21 | 0.606 | 1 | 1
NM_032916 | 0.70 | 0.70 | 2 | – | – | – | – | – | – | – | – | – | –
XM_058073 | 0.75 | 0.73 | 3 | – | – | – | – | – | – | – | – | – | –
NM_148571 | 0.81 | 0.73 | 1 | – | – | – | – | – | – | – | – | – | –
STIM2 | – | – | – | −0.99 | 0.83 | −0.99 | 0.83 | 0.72 | 0.72 | −2.39 | 0.597 | 2 | 2
NM_152655 | 0.89 | 0.72 | 2 | – | – | – | – | – | – | – | – | – | –
PCBP3 | – | – | – | 0.15 | 1.02 | 0.15 | 1.02 | 0.71 | 0.71 | −1.69 | 0.727 | 1 | 1
SLC47A1 | – | – | – | −0.71 | 0.90 | −0.71 | 0.90 | 0.68 | 0.68 | −1.62 | 0.613 | 2 | 2
NM_198080 | 0.85 | 0.67 | 1 | – | – | – | – | – | – | – | – | – | –
NM_152496 | 0.64 | 0.72 | 1 | – | – | – | – | – | – | – | – | – | –
NM_032425 | 0.77 | 0.73 | 2 | – | – | – | – | – | – | – | – | – | –
PDE6C | – | – | – | −0.33 | 0.95 | −0.33 | 0.95 | 0.66 | 0.66 | −1.98 | 0.621 | 1 | 1
NM_152905 | 1.08 | 0.67 | 1 | – | – | – | – | – | – | – | – | – | –
SLC24A3 | – | – | – | −0.75 | 0.88 | −0.75 | 0.88 | 0.72 | 0.72 | −2.23 | 0.637 | 1 | 1

Molecule | Fold_HMLER (HMLER cells; siRNA pool) | Ratio (BPLER cells [1]) | Cherry Score (BPLER cells [2]; [3]) | MAD_HMLER (HMLER cells; siRNA pool against the gene) | Fold_HMLER (HMLER cells; [4]) | MAD HMLER (HMLER cells; siRNA pool against the gene) | Fold HMLER (HMLER cells; siRNA pool against the gene) | Ratio BPLER/HMLER (BPLER cells [1]; [5]) | Ratio BPLER/HMLER (BPLER cells [1]; [6]) | MAD BPLER (BPLER cells [1]) | Fold BPLER (BPLER cells [1]) | Cherry_Score (BPLER cells [2]) | Cherry Score (BPLER cells [2]; [7])
NUP205 | – | – | – | −1.57 | 0.75 | −1.57 | 0.75 | 0.73 | 0.73 | −2.88 | 0.544 | 3 | 3
NM_052946 | 0.90 | 0.67 | 1 | – | – | – | – | – | – | – | – | – | –
NOSTRIN | – | – | – | −0.69 | 0.90 | −0.69 | 0.90 | 0.67 | 0.67 | −2.06 | 0.604 | 1 | 1
USP39 | – | – | – | −0.04 | 0.99 | −0.04 | 0.99 | 0.70 | 0.70 | −2.13 | 0.695 | 2 | 2
TNPO1 | – | – | – | −0.59 | 0.90 | −0.59 | 0.90 | 0.70 | 0.70 | −1.99 | 0.630 | 1 | 1
POLA1 | – | – | – | −0.17 | 0.97 | −0.17 | 0.97 | 0.74 | 0.74 | −2.01 | 0.724 | 3 | 3
PDCD4 | – | – | – | −2.25 | 0.63 | −2.25 | 0.63 | 0.73 | 0.73 | −2.81 | 0.462 | 1 | 1
SETX | – | – | – | −0.72 | 0.89 | −0.72 | 0.89 | 0.70 | 0.70 | −2.40 | 0.617 | 1 | 1
SCD | – | – | – | −1.58 | 0.75 | −1.58 | 0.75 | 0.74 | 0.74 | −3.24 | 0.555 | 2 | 2
TSG101 | – | – | – | 0.23 | 1.04 | 0.23 | 1.04 | 0.66 | 0.66 | −2.45 | 0.684 | 3 | 3
TANC2 | – | – | – | 0.40 | 1.05 | 0.40 | 1.05 | 0.67 | 0.67 | −1.86 | 0.709 | 1 | 1
PRC1 | – | – | – | −2.40 | 0.60 | −2.40 | 0.60 | 0.68 | 0.68 | −3.08 | 0.409 | 1 | 1
TBC1D24 | – | – | – | −0.32 | 0.95 | −0.32 | 0.95 | 0.71 | 0.71 | −1.97 | 0.680 | 2 | 2
TUT1 | – | – | – | −0.07 | 0.99 | −0.07 | 0.99 | 0.69 | 0.69 | −1.91 | 0.680 | 2 | 2
NM_134444 | 1.01 | 0.69 | 1 | – | – | – | – | – | – | – | – | – | –
NM_174931 (nucleic acid, listed as Homo sapiens) DNA: AATAGAGTCTGCACTAGGAAACTGGTGGGAGCCGAGGTCCGGAAGTCCGACGCTGGTCGGTGGGCGCATGCGCAGCGCGCGCTCTACGGCGCTGAACCGGGGCGAGCAGAGAGCTGTCAGATACTATAGCCATATGAAGTTGAACATGGCAGAAGAAGAGGACTATATGTCTGATTCCTTCATTAATGTCCAAGAAGATATCAGACCAGGATTGCCAATGCTAAGGCAAATCCGAGAAGCCCGTCGAAAAGAAGAAAAGCAACAGGAAGCCAATTTGAAAAACAGGCAGAAGAGTTTAAAAGAAGAAGAACAAGAAAGACGTGACATTGGGTTGAAGAATGCACTAGGCTGTGAAAACAAAGGGTTTGCCTTGCTCCAAAAGATGGGCTATAAAAGTGGTCAGGCACTTGGCAAGAGTGGGGGTGGTATTGTTGAACCAATTCCTCTCAATATCAAAACAGGGAAAAGTGGCATTGGTCATGAGGCATCATTAAAACGGAAAGCAGAGGAAAAATTGGAAAGCTACAGAAAAAAGATTCACATGAAAAACCAAGCTGAAGAAAAAGCTGCAGAACAGTTTCGAATGCGACTTAAAAATAAGCAAGATGAAATGAAGCTAGAAGGAGATCTCAGAAGAAGCCAGCGAGCCTGTCAACAACTGGATGTCCAGAAAAATATTCAGGTTCCCAGGGAAGCATGGTACTGGTTGAGGCTTGAAGAGGAGACTGAAGAAGATGAAGAAGAAAAAGAACAGGATGAAGATGAATATAAGAGTGAAGATTTAAGCGTACTGGAAAAATTACAAATATTGACTAGTTATTTAAGAGAAGAACATCTATATTGTATTTGGTGTGGAACAGCCTATGAAGATAAAGAAGACCTATCTTCAAATTGTCCAGGACCAACTTCTGCAGATCATGACTAAGATTATTCCCAATAAAGTGGAAACTTGAAAAATGTTATTACTTCCTAGGGATAGACAATTTAGCAGTTGGAAATCTCAAATTTTTTATGCCAGTAAAGAAAGGGGGACTTTATATAATGTTTTGTTCTTTTTGTACTTTAGAATATGAATGTTCATTGACTTGAAAAAAATAATGCAATGGCATTTCAGAACACAAGTATCACAGAGATGGACAGTTACAATTTATTGCTATATTGTGATACGTGAGGGGTTTAAGGACACCAACAGGTAACTTCTTATTCCCCTCTTCACTTTGGAACAAATTGAGAAATAAGAAATGGGAGTCAGAGGAA | 0.65 | 0.72 | 1 | – | – | – | – | – | – | – | – | – | –
